Measurements published in patent publication US20190090476A1, “MICROEMULSIONS FOR AGRICULTURAL USE” (Florida Chemical Company, Inc., priority 2017, published 2019).
Read-outs that look alike come from different tables or passages of the source.

Columns and labels:
[1] = HSP distance Ra and relative energy difference RED of solvents versus plant wax HSP values; conditions: for RED 1: RED=Ra 1/Ro; for RED 1 / RED 2: Ro=7.1; for RED 2: RED=Ra 2/Ro
Source text: The HSP distance between two molecules, conventionally called Ra, is the measure of how alike they are. The smaller the Ra, the more likely they are to be compatible. A quantity called the relative energy difference (RED) may be used to measure relative distance:
where Ro is the radius of the sphere that contains all good solvents. […] Generally, a value of Ro=7.1 is typical. For RED<1, the molecules are alike and will dissolve. For RED=1, the system will partially dissolve. For RED>1, the system will not dissolve.
A solvent with similar HSP values to these, or a solvent for which Ra (calculated as shown above) is small, or for which RED is less than or equal to 1, would be expected to partially solvate and soften plant leaf cuticle waxes.

[2] = cited from earlier work; for δD: energy from dispersion forces; for δH: energy from hydrogen bonds; for δP: energy from polar intermolecular force
[3] = HSP distance to lower plant wax HSP values (δD=16.0-16.3, δP 0-2.5, δH=0-3.1)
[4] = HSP distance to upper plant wax HSP values (δD=16.0-16.3, δP 0-2.5, δH=0-3.1)

Compound	Ra 2 [1, 3]	Ra 1 [1, 4]	RED 1 [1]	RED 2 [1]	δD [2] [MPa^1/2]	δH [2] [MPa^1/2]	δP [2] [MPa^1/2]	Ra 1 [1]	Ra 2 [1]
O=C(OCc1ccccc1)c1ccccc1 [Benzyl Benzoate]	8.1	10.8	1.52	1.14	20	5.2	5.1	–	–
O=C1OCCO1 [Ethylene Carbonate]	19.6	22.6	3.19	2.76	–	–	–	–	–
CCCCOCCO [Ethylene Glycol Monobutyl Ether]	9.6	13.3	1.88	1.35	16	12.3	5.1	–	–
CC(=O)OCCC(C)C [Iso-Pentyl Acetate]	4.4	7.8	1.10	0.62	15.3	7	3.1	–	–
CC1CCCCC1 [Methyl Cyclohexane]	–	–	0.14	0.47	16	1	0	1.0	3.3
CCCCCCCC/C=C\CCCCCCCC(=O)OC [Methyl Oleate]	1.9	5.9	0.83	0.27	16.2	4.5	3.8	–	–
CC1COC(=O)O1 (stereo not shown) [Propylene Carbonate]	17.2	20.1	2.83	2.42	20	4.1	18	–	–
CC1=CC=C(C(C)C)CC1 [alpha terpinene]	2.1	4.7	0.67	0.30	16.2	4.6	1	–	–
CC1=CC[C@@H](C(C)(C)O)CC1 [alpha terpineol]	8.4	12.1	1.71	1.18	16.1	11.2	4.6	–	–
CCCCOC(=O)c1ccccc1 [butyl benzoate]	5.6	9.1	1.28	0.79	18.3	5.5	5.6	–	–
CCCCOC(=O)CC(C)O (stereo not shown) [butyl-3-hydroxybutyrate]	9.3	13.2	1.85	1.31	16.10	11.50	6.40	–	–
C1CCCCC1 [cyclohexane]	4.0	1.6	0.23	0.56	16.8	0.2	0	–	–
OC1CCCCC1 [cyclohexanol]	10.7	14.4	2.03	1.51	17.4	13.5	4.1	–	–
C=C(C)[C@H]1CC=C(C)CC1 [d-limonene]	2.3	5.2	0.74	0.32	17.2	4.3	1.8	–	–
CC12CCC(CC1)C(C)(C)O2 [eucalyptol]	2.1	5.6	0.78	0.29	17	3.3	4	–	–
CCCCCCC [heptane]	4.4	1.3	0.19	0.62	15.34	0	0	–	–
CCCCCCCO [heptanol]	9.3	13.0	1.83	1.31	16.57	12.27	4.09	–	–
CCCCCCOC(C)=O [hexyl acetate]	3.0	6.7	0.94	0.42	15.95	5.93	3.07	–	–
CC1=CC(=O)CC(C)(C)C1 [isophorone]	7.2	11.1	1.56	1.01	16.6	7.4	8.2	–	–
C=CC(C)(O)CCC=C(C)C (stereo not shown) [linalool]	3.8	7.5	1.06	0.54	16.5	6.9	2.8	–	–
Cc1cccc(O)c1 [m-Cresol]	12.2	16.0	2.25	1.71	18.5	13.7	6.5	–	–
CCCCCCCCCCCC(=O)OC [methyl dodecanoate]	2.4	5.9	0.83	0.34	16.54	5.43	2.06	–	–
CCCCCCCC(=O)OC [methyl octanoate]	2.8	6.4	0.91	0.40	16.58	5.85	2.4	–	–
CCCCOC(C)=O [n-Butyl Acetate]	3.6	7.3	1.03	0.50	15.8	6.3	3.7	–	–
CCCCOC(=O)CC [n-Butyl Propionate]	–	–	1.14	0.60	15.7	5.9	5.5	8.1	4.3
CC(=O)OC(C)(C)C [t-Butyl Acetate]	4.1	7.3	1.03	0.57	15	6	3.7	–	–
CC(C)(C)O [t-Butyl Alcohol]	12.1	15.6	2.20	1.70	15.2	14.7	5.1	–	–
Dimethyl Cyclohexane	3.2	1.1	0.16	0.45	16.1	1.1	0	–	–
